According to publication PMC3723878 (PLoS ONE, 2013):
Changes are numbered by the printed parent chain.

Columns and labels:
[1] = molecular target: T1, human α1A-AR S188A/S192A (SS-AA) variant (Homo sapiens, UniProt P35348, S188A/S192A); assay: Saturation binding of ^125I-HEAT
T1 construct: expressed in transfected cells; host or cells: COS-7, transient (calcium phosphate)
T1 sequence (P35348 1-466 S188A/S192A): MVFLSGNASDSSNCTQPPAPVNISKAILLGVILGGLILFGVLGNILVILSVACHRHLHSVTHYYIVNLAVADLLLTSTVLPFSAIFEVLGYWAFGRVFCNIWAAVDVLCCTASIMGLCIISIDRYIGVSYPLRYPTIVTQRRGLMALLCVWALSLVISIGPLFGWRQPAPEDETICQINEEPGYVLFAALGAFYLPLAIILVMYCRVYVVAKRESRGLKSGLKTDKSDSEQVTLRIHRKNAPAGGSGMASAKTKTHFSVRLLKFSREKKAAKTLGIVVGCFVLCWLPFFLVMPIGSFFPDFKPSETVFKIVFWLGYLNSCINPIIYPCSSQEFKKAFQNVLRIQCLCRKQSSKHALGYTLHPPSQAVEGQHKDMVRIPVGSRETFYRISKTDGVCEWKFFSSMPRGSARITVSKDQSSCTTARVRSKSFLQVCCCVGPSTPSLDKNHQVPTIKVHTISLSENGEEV

[2] = molecular target: T2, human α1A-AR F308A variant (Homo sapiens, UniProt P35348, F308A); assay: Saturation binding of ^125I-HEAT
T2 construct: expressed in transfected cells; host or cells: COS-7 (transient, calcium phosphate), membranes
T2 sequence (P35348 1-466 F308A): T1 sequence (P35348 1-466 S188A/S192A) with A188S, A192S, F308A

Which results are given for `O=C1c2ccccc2CCC1CNCCc1ccc(O)c([125I])c1` (stereo not shown) [125I-HEAT]?
^125I-HEAT Ratio (loss of affinity relative to WT) ([1]; SS-AA): 0.78; ^125I-HEAT pKd ([1]; SS-AA (5.42–5.46), saturation binding, n = 3–6): 10.15±0.01; ^125I-HEAT Ratio (loss of affinity relative to WT) ([2]; F308A): 2.4; ^125I-HEAT pKd ([2]; F308A (7.35), saturation binding, n = 3–6): 9.66±0.11
